From patent US10745394B2, “8-azabicyclo[3.2.1]octane compounds as mu opioid receptor antagonists” (priority 2006, dated 2020)
Like-named read-outs stand apart in the source and are kept apart here.

Assays:
[1] = molecular target: T1, human mu opioid receptor (Homo sapiens, UniProt P35372); assay: Radioligand binding assay, human mu opioid receptor; settings: displacement of [3H]-Diprenorphine
T1 construct: expressed in transfected cells; host or cells: CHO-K1

[2] = molecular target: T1, human mu opioid receptor; assay: Human mu GTP-Eu nucleotide exchange assay (agonist mediated activation) in CHO-K1 membranes; type: biochemical; settings: bound GTP-Eu relative to DAMGO (IA=100); read-out: intrinsic activity (IA)
Experimental: a. Mu Opioid Receptor Membrane Preparation:
Protein concentration was determined using a Bio-Rad Bradford Protein Assay kit. Membranes were stored in frozen aliquots at −80° C., until required. Lyophilized GTP-Eu and GDP were diluted to 10 μM and 2 mM, respectively, in double distilled H2O then mixed and permitted to sit at room temperature for 30 minutes prior to transfer to individual aliquots samples for storage at −20° C.
b. Human Mu GTP-Eu Nucleotide Exchange Assay
GTP-Eu nucleotide exchange assays were performed using the DELPHIA GTP-binding kit (Perkin/Elmer) in AcroWell 96 well filter plates according to the manufacturer's specifications. […] Test compounds were received as 10 mM stock solutions in DMSO, diluted to 400 μM into Assay Buffer containing 0.1% BSA, and serial (1:5) dilutions then made to generate ten concentrations of compound ranging from 40 pM^− 80 μM-GDP and GTP-Eu were diluted to 4 μM and 40 nM, respectively, in Assay Buffer. The assay was performed in a total volume of 100 μL containing 5 μg of membrane protein, test compound ranging from 10 pM-20 μM), 1 μM GDP, and 10 nM GTP-Eu diluted in 10 mM MgCl2, 50 mM NaCl, and 0.0125% BSA, (final assay concentrations). A DAMGO (Tyr-D-Ala-Gly-(methyl)Phe-Gly-ol) concentration-response curve (ranging from 12.8 pM-1 μM) was included on every plate.
Assay plates were prepared immediately prior to assay following the addition of 25 μL of Assay Buffer, 25 μL of test compound, and 25 μL GDP and GTP-Eu. The assay was initiated by the addition of 25 μL membrane protein and allowed to incubate for 30 minutes. The assay plates were then filtered with a Waters vacuum manifold connected to the house vacuum regulated to 10-2 in. Hg and washed with room temperature GTP Wash Solution ([…]). The bottoms of the plates were blotted to remove excess liquid. The plates were then immediately read to determine the amount of bound GTP-Eu by measuring Time Resolved Fluorescence (TRF) on a Packard Fusion Plate ReaderVehicle: DMSO not to exceed 1% final assay concentration.
The amount of bound GTP-Eu is proportional to the degree of activation of the mu opioid receptors by the test compound.

[3] = test system: morphine-induced analgesia / morphine-induced delayed gastrointestinal transit
[4] = following subcutaneous administration

T1 sequence (P35372 whole entry): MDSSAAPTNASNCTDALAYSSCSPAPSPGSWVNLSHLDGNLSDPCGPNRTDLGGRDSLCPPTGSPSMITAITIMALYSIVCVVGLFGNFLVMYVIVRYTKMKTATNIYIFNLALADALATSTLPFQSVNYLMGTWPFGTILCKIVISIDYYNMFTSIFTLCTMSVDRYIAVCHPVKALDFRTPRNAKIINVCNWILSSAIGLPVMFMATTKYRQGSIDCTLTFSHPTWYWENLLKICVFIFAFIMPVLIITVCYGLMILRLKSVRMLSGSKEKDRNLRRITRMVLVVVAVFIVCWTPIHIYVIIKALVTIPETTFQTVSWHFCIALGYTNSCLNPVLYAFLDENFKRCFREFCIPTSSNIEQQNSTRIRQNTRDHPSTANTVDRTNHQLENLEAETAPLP

In the case of NC(=O)c1cccc([C@H]2C[C@H]3CC[C@@H](C2)N3CCN(Cc2ccccc2)C(=O)CO)c1 [Example 46B, 3-endo-(8-{2-[benzyl-(2-hydroxyacetyl)-amino]ethyl}-8-azabicyclo[3.2.1]oct-3-yl)benzamide], the pKi [1] is reported as 10.0 and the Emax [2] is reported as -3%.

NC(=O)c1cccc([C@H]2C[C@H]3CC[C@@H](C2)N3CCN(CC2CCC(F)(F)CC2)C(=O)CO)c1 [Example 63, 3-endo-(8-{2-[(4,4-difluorocyclohexylmethyl)-(2-hydroxyacetyl)amino]ethyl}-8-azabicyclo[3.2.1]oct-3-yl)benzamide] was tested, and the “peripheral selectivity (hotplate ID50 / intestinal transit ID50)” value ([3]; following oral administration) was 22 and the “peripheral selectivity (hotplate ID50 / intestinal transit ID50)” value [3, 4] was 22.

With CS(=O)(=O)CC(=O)N(CCc1ccccc1)CCN1[C@@H]2CC[C@H]1C[C@@H](c1cccc(C(N)=O)c1)C2 [Example 136, 3-endo-(8-{2-[(2-methanesulfonylacetyl)phenethylamino]ethyl}-8-azabicyclo[3.2.1]oct-3-yl)-benzamide] the pKi [1] was 9.8 and the Emax [2] was 14%.

For NC(=O)c1cccc([C@H]2C[C@H]3CC[C@@H](C2)N3CCN(CC2CCCCC2)C(=O)CO)c1 [Example 48B, 3-endo-(8-{2-[cyclohexylmethyl-(2-hydroxyacetyl)-amino]-ethyl}-8-azabicyclo[3.2.1]oct-3-yl)benzamide], the “peripheral selectivity (hotplate ID50 / intestinal transit ID50)” value ([3]; following oral administration) was 42 and the “peripheral selectivity (hotplate ID50 / intestinal transit ID50)” value [3, 4] was 30.

In the case of O=C(CO)N(CCN1[C@@H]2CC[C@H]1C[C@@H](c1cccc(O)c1)C2)Cc1ccccc1 [Example 1, N-benzyl-2-hydroxy-N-{2-[3-endo-(3-hydroxyphenyl)-8-azabicyclo[3.2.1]oct-8-yl]ethyl}acetamide], the pKi [1] is reported as 10.1 and the Emax [2] is reported as 6%.

For NC(=O)c1cccc([C@H]2C[C@H]3CC[C@@H](C2)N3CCN(CC2CCCCC2)C(=O)[C@@H](O)CO)c1 [Example 58, 3-endo-(8-{2-[cyclohexylmethyl-((S)-2,3-dihydroxy-propionyl)amino]ethyl}-8-aza-bicyclo[3.2.1]oct-3-yl)benzamide], the pKi [1] was 9.9, the “peripheral selectivity (hotplate ID50 / intestinal transit ID50)” value ([3]; following oral administration) was 35 and the “peripheral selectivity (hotplate ID50 / intestinal transit ID50)” value [3, 4] was 300. The Emax [2] was -3%.

NC(=O)c1cccc([C@H]2C[C@H]3CC[C@@H](C2)N3CCN(CCc2ccccc2)C(=O)CO)c1 [Example 59, 3-endo-(8-{2-[(2-hydroxyacetyl)phenethylamino]-ethyl}-8-azabicyclo[3.2.1]oct-3-yl)benzamide] was tested, and the Emax [2] was -2%.
